Measured values from PubChem BioAssay (NCI).
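Exposure lasted 48 hours, with cells grown in 96-well plates and compounds tested at five concentrations. TGI: total growth inhibition.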

Legend:
Test in all cases: DTP human tumour cell line panel, 48 h
786-0 renal = tested on: 786-0 renal
A498 renal = tested on: A498 renal
A549 NSCLC = tested on: A549 NSCLC
ACHN renal = tested on: ACHN renal
CAKI-1 renal = tested on: CAKI-1 renal
CCRF-CEM leukemia = tested on: CCRF-CEM leukemia
COLO 205 colon = tested on: COLO 205 colon
DU-145 prostate = tested on: DU-145 prostate
EKVX NSCLC = tested on: EKVX NSCLC
HCC-2998 colon = tested on: HCC-2998 colon
HCT-116 colon = tested on: HCT-116 colon
HCT-15 colon = tested on: HCT-15 colon
HL-60(TB) leukemia = tested on: HL-60(TB) leukemia
HOP-62 NSCLC = tested on: HOP-62 NSCLC
HOP-92 NSCLC = tested on: HOP-92 NSCLC
HT29 colon = tested on: HT29 colon
K-562 leukemia = tested on: K-562 leukemia
KM12 colon = tested on: KM12 colon
LOX IMVI melanoma = tested on: LOX IMVI melanoma
M14 melanoma = tested on: M14 melanoma
MCF7 breast = tested on: MCF7 breast
MDA-MB-231 breast = tested on: MDA-MB-231 breast
MDA-MB-435 = tested on: MDA-MB-435
MDA-N = tested on: MDA-N
MOLT-4 leukemia = tested on: MOLT-4 leukemia
NCI-H226 lung = tested on: NCI-H226 lung
NCI-H23 lung = tested on: NCI-H23 lung
NCI-H460 lung = tested on: NCI-H460 lung
NCI/ADR-RES ovarian = tested on: NCI/ADR-RES ovarian
OVCAR-3 ovarian = tested on: OVCAR-3 ovarian
OVCAR-4 ovarian = tested on: OVCAR-4 ovarian
OVCAR-5 ovarian = tested on: OVCAR-5 ovarian
OVCAR-8 ovarian = tested on: OVCAR-8 ovarian
PC-3 prostate = tested on: PC-3 prostate
RPMI-8226 leukemia = tested on: RPMI-8226 leukemia
RXF 393 renal = tested on: RXF 393 renal
SF-268 CNS = tested on: SF-268 CNS
SF-295 CNS = tested on: SF-295 CNS
SF-539 CNS = tested on: SF-539 CNS
SK-MEL-28 melanoma = tested on: SK-MEL-28 melanoma
SK-MEL-5 melanoma = tested on: SK-MEL-5 melanoma
SK-OV-3 ovarian = tested on: SK-OV-3 ovarian
SN12C renal = tested on: SN12C renal
SNB-19 CNS = tested on: SNB-19 CNS
SNB-75 CNS = tested on: SNB-75 CNS
SW-620 colon = tested on: SW-620 colon
T-47D breast = tested on: T-47D breast
TK-10 renal = tested on: TK-10 renal
U251 CNS = tested on: U251 CNS
UACC-257 melanoma = tested on: UACC-257 melanoma
UACC-62 melanoma = tested on: UACC-62 melanoma
UO-31 renal = tested on: UO-31 renal
IGROV1 ovarian = tested on: IGROV1 ovarian
MALME-3M melanoma = tested on: MALME-3M melanoma
NCI-H522 lung = tested on: NCI-H522 lung
SK-MEL-2 melanoma = tested on: SK-MEL-2 melanoma
BT-549 breast = tested on: BT-549 breast
SR leukemia = tested on: SR leukemia

## Cc1nn(-c2ccccc2)c2nc3c(c(C)nn3-c3ccccc3)c(-c3ccc(C(F)(F)F)cc3)c12
786-0 renal
  TGI: > 100 µM
A498 renal
  TGI: > 100 µM
A549 NSCLC
  TGI: > 100 µM
ACHN renal
  TGI: > 100 µM
CAKI-1 renal
  TGI: > 100 µM
CCRF-CEM leukemia
  TGI: > 100 µM
COLO 205 colon
  TGI: > 100 µM
DU-145 prostate
  TGI: > 100 µM
EKVX NSCLC
  TGI: > 100 µM
HCC-2998 colon
  TGI: > 100 µM
HCT-116 colon
  TGI: > 100 µM
HCT-15 colon
  TGI: > 100 µM
HL-60(TB) leukemia
  TGI: > 100 µM
HOP-62 NSCLC
  TGI: > 100 µM
HOP-92 NSCLC
  TGI: > 100 µM
HT29 colon
  TGI: > 100 µM
K-562 leukemia
  TGI: > 100 µM
KM12 colon
  TGI: > 100 µM
LOX IMVI melanoma
  TGI: > 100 µM
M14 melanoma
  TGI: > 100 µM
MCF7 breast
  TGI: > 100 µM
MDA-MB-231 breast
  TGI: > 100 µM
MDA-MB-435
  TGI: > 100 µM
MDA-N
  TGI: > 100 µM
MOLT-4 leukemia
  TGI: > 100 µM
NCI-H226 lung
  TGI: > 100 µM
NCI-H23 lung
  TGI: > 100 µM
NCI-H460 lung
  TGI: > 100 µM
NCI/ADR-RES ovarian
  TGI: > 100 µM
OVCAR-3 ovarian
  TGI: > 100 µM
OVCAR-4 ovarian
  TGI: > 100 µM
OVCAR-5 ovarian
  TGI: > 100 µM
OVCAR-8 ovarian
  TGI: > 100 µM
PC-3 prostate
  TGI: > 100 µM
RPMI-8226 leukemia
  TGI: > 100 µM
RXF 393 renal
  TGI: > 100 µM
SF-268 CNS
  TGI: > 100 µM
SF-295 CNS
  TGI: > 100 µM
SF-539 CNS
  TGI: > 100 µM
SK-MEL-28 melanoma
  TGI: > 100 µM
SK-MEL-5 melanoma
  TGI: > 100 µM
SK-OV-3 ovarian
  TGI: > 100 µM
SN12C renal
  TGI: > 100 µM
SNB-19 CNS
  TGI: > 100 µM
SNB-75 CNS
  TGI: 92.6 µM
SW-620 colon
  TGI: > 100 µM
T-47D breast
  TGI: > 100 µM
TK-10 renal
  TGI: > 100 µM
U251 CNS
  TGI: > 100 µM
UACC-257 melanoma
  TGI: > 100 µM
UACC-62 melanoma
  TGI: > 100 µM
UO-31 renal
  TGI: > 100 µM

## CCCCCCCCCCCCCCCCCCOP1(=O)OCCO1
786-0 renal
  TGI: > 100 µM
A498 renal
  TGI: > 100 µM
A549 NSCLC
  TGI: > 100 µM
ACHN renal
  TGI: > 100 µM
CAKI-1 renal
  TGI: > 100 µM
CCRF-CEM leukemia
  TGI: > 100 µM
COLO 205 colon
  TGI: > 100 µM
DU-145 prostate
  TGI: > 100 µM
EKVX NSCLC
  TGI: > 100 µM
HCC-2998 colon
  TGI: > 100 µM
HCT-116 colon
  TGI: > 100 µM
HCT-15 colon
  TGI: > 100 µM
HL-60(TB) leukemia
  TGI: 75.3 µM
HOP-62 NSCLC
  TGI: > 100 µM
HOP-92 NSCLC
  TGI: > 100 µM
HT29 colon
  TGI: > 100 µM
IGROV1 ovarian
  TGI: > 100 µM
K-562 leukemia
  TGI: > 100 µM
KM12 colon
  TGI: > 100 µM
LOX IMVI melanoma
  TGI: > 100 µM
M14 melanoma
  TGI: > 100 µM
MALME-3M melanoma
  TGI: > 100 µM
MCF7 breast
  TGI: > 100 µM
MDA-MB-231 breast
  TGI: > 100 µM
MDA-MB-435
  TGI: > 100 µM
MDA-N
  TGI: > 100 µM
MOLT-4 leukemia
  TGI: > 100 µM
NCI-H226 lung
  TGI: > 100 µM
NCI-H23 lung
  TGI: > 100 µM
NCI-H522 lung
  TGI: > 100 µM
NCI/ADR-RES ovarian
  TGI: > 100 µM
OVCAR-3 ovarian
  TGI: > 100 µM
OVCAR-4 ovarian
  TGI: > 100 µM
OVCAR-5 ovarian
  TGI: > 100 µM
OVCAR-8 ovarian
  TGI: > 100 µM
PC-3 prostate
  TGI: 83.9 µM
RPMI-8226 leukemia
  TGI: > 100 µM
RXF 393 renal
  TGI: 75.4 µM
SF-295 CNS
  TGI: > 100 µM
SF-539 CNS
  TGI: > 100 µM
SK-MEL-2 melanoma
  TGI: > 100 µM
SK-MEL-28 melanoma
  TGI: > 100 µM
SK-MEL-5 melanoma
  TGI: > 100 µM
SK-OV-3 ovarian
  TGI: > 100 µM
SN12C renal
  TGI: > 100 µM
SNB-19 CNS
  TGI: > 100 µM
SNB-75 CNS
  TGI: > 100 µM
SW-620 colon
  TGI: > 100 µM
T-47D breast
  TGI: > 100 µM
TK-10 renal
  TGI: > 100 µM
U251 CNS
  TGI: > 100 µM
UACC-257 melanoma
  TGI: > 100 µM
UACC-62 melanoma
  TGI: > 100 µM
UO-31 renal
  TGI: > 100 µM

## CCc1nnc(CC)n1N1C(=O)CCC1=O
786-0 renal
  TGI: > 100 µM
A549 NSCLC
  TGI: > 100 µM
ACHN renal
  TGI: > 100 µM
BT-549 breast
  TGI: > 100 µM
CCRF-CEM leukemia
  TGI: > 100 µM
COLO 205 colon
  TGI: > 100 µM
DU-145 prostate
  TGI: > 100 µM
EKVX NSCLC
  TGI: > 100 µM
HCC-2998 colon
  TGI: > 100 µM
HCT-116 colon
  TGI: > 100 µM
HCT-15 colon
  TGI: > 100 µM
HOP-62 NSCLC
  TGI: > 100 µM
HOP-92 NSCLC
  TGI: > 100 µM
HT29 colon
  TGI: > 100 µM
IGROV1 ovarian
  TGI: > 100 µM
K-562 leukemia
  TGI: > 100 µM
KM12 colon
  TGI: > 100 µM
LOX IMVI melanoma
  TGI: > 100 µM
M14 melanoma
  TGI: > 100 µM
MCF7 breast
  TGI: > 100 µM
MDA-MB-231 breast
  TGI: > 100 µM
MDA-MB-435
  TGI: > 100 µM
MDA-N
  TGI: > 100 µM
MOLT-4 leukemia
  TGI: > 100 µM
NCI-H23 lung
  TGI: > 100 µM
NCI-H522 lung
  TGI: > 100 µM
NCI/ADR-RES ovarian
  TGI: > 100 µM
OVCAR-3 ovarian
  TGI: > 100 µM
OVCAR-4 ovarian
  TGI: > 100 µM
OVCAR-5 ovarian
  TGI: > 100 µM
OVCAR-8 ovarian
  TGI: > 100 µM
PC-3 prostate
  TGI: > 100 µM
RPMI-8226 leukemia
  TGI: > 100 µM
RXF 393 renal
  TGI: > 100 µM
SF-268 CNS
  TGI: > 100 µM
SF-295 CNS
  TGI: > 100 µM
SF-539 CNS
  TGI: > 100 µM
SK-MEL-2 melanoma
  TGI: > 100 µM
SK-MEL-28 melanoma
  TGI: > 100 µM
SK-MEL-5 melanoma
  TGI: > 100 µM
SK-OV-3 ovarian
  TGI: > 100 µM
SN12C renal
  TGI: > 100 µM
SNB-19 CNS
  TGI: > 100 µM
SNB-75 CNS
  TGI: > 100 µM
SR leukemia
  TGI: > 100 µM
SW-620 colon
  TGI: > 100 µM
TK-10 renal
  TGI: > 100 µM
U251 CNS
  TGI: > 100 µM
UACC-257 melanoma
  TGI: > 100 µM
UACC-62 melanoma
  TGI: > 100 µM
UO-31 renal
  TGI: > 100 µM
